Data: patent publication US20050245452A1, “Pharmaceutical use of novispirins” (Novozymes A/S, priority 2004, published 2005)

Legend:
[1] = test system: IFN-γ, TNF-α, IL4, IL-6 and IL-10 in lung supernatants; experiment: Lung cytokine response (ELISA of lung supernatants) in P. aeruginosa lung infection in rats; assay type: in vivo, Lewis rat; set-up: Lung cytokine responses (Mean + SD): IL-4 / Lung cytokine responses (Mean + SD): IL-6 / Lung cytokine responses (Mean + SD): IL-10 / Lung cytokine responses (Mean + SD): IFN-gamma / Lung cytokine responses (Mean + SD): TNF-alpha: unit not given here
Experimental: (§1) The bacterial strain, Pseudomonas aeruginosa, used in the study is CF86/57388A (1997), which is isolated from a cystic fibrosis patient and keeps stable mucoid phenotype. The rat strain used in the study is Lewis rat (7 weeks old, female) imported from Germany. Both bacterial challenge and drug administration were done intratracheally. All rats were challenged with mucoid P. aeruginosa in alginate. The concentration of the bacteria was 1×10^10 CFU/ml and each rat received 0.1 ml (1×10^9 CFU) bacteria. Control group received placebo (sterile saline, 0.1 ml/rat) twice at hour 0 and 3, and the Novispirin G10 group received the peptide (0.1 mg/ml, 0.1 ml/rat) twice at hour 0 and 3. The animals were sacrificed on day 3, 5, 7 and 10 after challenge for parameters evaluation. Supernatants of the lungs were harvested from days 3, 5 and 7 after lung infection and treatment. Interferon-gamma (IFN-γ), tumor necrosis factor-alpha (TNF-α), interleukin4 (IL4), IL-6 and IL-10 were measured by using ELISA kits (Nordic BioSite, Sweden).

[2] = test system: P. acnes (erythromycin resistant); experiment: MIC on Propionebacterium acnes, erythromycin resistant strain; assay type: cell-based; settings: clinically resistant to clindamycin and erythromycin
Experimental: (§2) Minimal Inhibitory Concentration (MIC) of Novispirin G10 (SEQ ID NO: 16) was evaluated against P. acnes. Two strains were tested—one of which is clinically resistant to clindamycin and erythromycin.

[3] = test system: Pseudomonas aeruginosa CF86/57388A (mucoid); experiment: Pseudomonas aeruginosa lung infection in rats: lung pathology and lung bacteriology; assay type: in vivo, Lewis rat; settings: for Lung bacteriology: Percentage of animals that cleared the bacteria in the lungs / Lung pathological scores: animals with Score 1 + 2 / Lung pathological scores: animals with Score 3 / Lung pathological scores: animals with Score 4: 0.1 mg/ml, 0.1 ml/rat intratracheally at hour 0 and 3
Experimental: as §1, with “evaluation.” for “evaluation. Supernatants of the lungs were harvested from days 3, 5 and 7 after lung infection and treatment. Interferon-gamma (IFN-γ), tumor necrosis factor-alpha (TNF-α), interleukin4 (IL4), IL-6 and IL-10 were measured by using ELISA kits (Nordic BioSite, Sweden).”

[4] = test system: P. acnes (erythromycin sensitive); experiment: MIC on Propionebacterium acnes, erythromycin sensitive strain; assay type: cell-based
Experimental: as §2

Novispirin G10: novispirin antimicrobial polypeptide; amino acid sequence shown in SEQ ID NO: 16 (KNLRRIIRKGIHIIKKYG; Synthetic antimicrobial peptide)
Lung cytokine responses (Mean + SD): IFN-gamma ([1]; Day 3, lung supernatant): 65.3 ± 28.6
Lung cytokine responses (Mean + SD): IL-4 ([1]; Day 3, lung supernatant): 34.5 ± 4.5
Lung cytokine responses (Mean + SD): IL-6 ([1]; Day 3, lung supernatant): 74.1 ± 10.0
Lung cytokine responses (Mean + SD): IL-10 ([1]; Day 3, lung supernatant): 51.7 ± 2.6
Lung cytokine responses (Mean + SD): TNF-alpha ([1]; Day 3, lung supernatant): 159.2 ± 23.8
Lung cytokine responses (Mean + SD): IFN-gamma ([1]; Day 5, lung supernatant): 116.6 ± 42.1
Lung cytokine responses (Mean + SD): IL-4 ([1]; Day 5, lung supernatant): 45.3 ± 5.9
Lung cytokine responses (Mean + SD): IL-6 ([1]; Day 5, lung supernatant): 65.2 ± 11.1
Lung cytokine responses (Mean + SD): IL-10 ([1]; Day 5, lung supernatant): 57.8 ± 7.6
Lung cytokine responses (Mean + SD): TNF-alpha ([1]; Day 5, lung supernatant): 128.1 ± 19.0
Lung cytokine responses (Mean + SD): IFN-gamma ([1]; Day 7, lung supernatant): 79.9 ± 16.2
Lung cytokine responses (Mean + SD): IL-4 ([1]; Day 7, lung supernatant): 37.3 ± 5.9
Lung cytokine responses (Mean + SD): IL-6 ([1]; Day 7, lung supernatant): 61.5 ± 11.0
Lung cytokine responses (Mean + SD): IL-10 ([1]; Day 7, lung supernatant): 51.3 ± 2.9
Lung cytokine responses (Mean + SD): TNF-alpha ([1]; Day 7, lung supernatant): 121.8 ± 19.6
All 5 kinds of cytokine levels compared to the control group ([1]; day 3, early phase of the infection): significantly lower
Minimal Inhibitory Concentration (MIC) [2]: 1
Lung bacteriology: Percentage of animals that cleared the bacteria in the lungs ([3]; Day 3): (30%)
Lung bacteriology: Percentage of animals that cleared the bacteria in the lungs ([3]; Day 5): (50%)
Lung bacteriology: Percentage of animals that cleared the bacteria in the lungs ([3]; Day 7): (90%)
Lung bacteriology: Percentage of animals that cleared the bacteria in the lungs ([3]; Day 10): (100%)
Gross lung pathology compared with the placebo control group ([3]; all 4 time points (day 3, 5, 7, 10)): significantly milder lung pathology
Histopathology of lungs ([3]; day 3): lung consolidation with chronic inflammation is the dominant change
Lung bacteriology compared to the control group ([3]; day 3): 175 times lower
Severity of lung scoring versus control group ([3]; day 3): no significant difference in the severity of lung scoring
Gross lung pathology: lung consolidation area ([3]; day 3, versus placebo control): the consolidation area was much smaller
Lung pathological scores: animals with Score 1 + 2 ([3]; day 3 after challenge): 0/14 = 0%
Lung pathological scores: animals with Score 3 ([3]; day 3 after challenge): 3/14 = 21.4%
Lung pathological scores: animals with Score 4 ([3]; day 3 after challenge): 11/14 = 78.6%
Histopathology of lungs ([3]; day 5): milder chronic inflammation
Lung pathological scores: animals with Score 1 + 2 ([3]; day 5 after challenge): 0/14 = 0%
Lung pathological scores: animals with Score 3 ([3]; day 5 after challenge): 10/14 = 71.4%
Lung pathological scores: animals with Score 4 ([3]; day 5 after challenge): 0/14 = 0%
Lung pathological scores: animals with Score 1 + 2 ([3]; day 7 after challenge): 6/11 = 54.5%
Lung pathological scores: animals with Score 3 ([3]; day 7 after challenge): 5/11 = 45.5%
Lung pathological scores: animals with Score 4 ([3]; day 7 after challenge): 0/11 = 0%
Histopathology of lungs ([3]; day 10): the lung pathology was tended to be cured
Lung pathological scores: animals with Score 1 + 2 ([3]; day 10 after challenge): 11/14 = 78.6%
Lung pathological scores: animals with Score 3 ([3]; day 10 after challenge): 3/14 = 21.4%
Lung pathological scores: animals with Score 4 ([3]; day 10 after challenge): 0/14 = 0%
Gross lung pathology: dominant finding ([3]; days 5, 7 and 10): small lung atelectasis, no abscess and adhesion found
Severity of lung scoring versus control group ([3]; from day 5 on): significantly milder lung pathology
Histopathology of lungs in comparison with the placebo control group ([3]; overall, intratracheal treatment): milder lung inflammation and recover remarkably faster
Minimal Inhibitory Concentration (MIC) [4]: 2
